Measurements as given in US9212349B2, “Method to produce virus in cultured cells” (priority 2011, dated 2015).

Assays:
VZV [1] = experiment: Yield of cell-free infectious VZV from infected MRC5 cells, plaque assay on ARPE-19 cells; type: cell-based, varicella zoster virus; conditions: for VZV yield, fold change relative to NT / VZV yield in comparison to no treatment: MOI 1:50, 72 h; for VZV yield in comparison to no treatment: Example 5, lipids at 6 hpi plus 10 μM αT, HSA, OSA 25 μM, sonicated immediately
Method: For this test, MRC5 cells (passage 20-25) were seeded at a density of 300.000 cell/100 mm culture dish and grown in 15 ml of DMEM containing 10% fetal calf serum plus 2 mM glutamax (Invitrogen) at 35° C. A lipid mixture (LM-1, 1 ml/liter medium, Sigma Aldrich #L5146) was added to the cells either at the time of seeding or 1 day after seeding. Three days later, the culture medium was replaced with 10 ml growth medium containing 50 mM sucrose as a stabilizer. The cells were further incubated for 3 days and growth medium was replaced with fresh medium containing no sucrose. After cells reached confluence, they were infected with VZV by adding infected cells (1 infected cell/50 uninfected cells; infected cells were from a preparation frozen in a solution of 10% DMSO plus 90% fetal calf serum and stored in liquid nitrogen). At the time of infection, the cultures were re-fed with DMEM containing 10% fetal calf serum plus 2 mM glutamax. Arachidonic acid (AA)+alpha-tocopherol (αT) or DHA+αT were added at the indicated times. 72 hours after infection, cells were washed twice with PBS, and incubated in 10 ml of PBS containing 50 mM ammonium chloride for 50 minutes at 4° C. The cells were harvested and frozen in PSGC buffer (Harper et al., Arch Virol 143:1163-70, 1998) at −80° C. Infectious virus was subsequently quantified by plaque assay of sonicated cells on ARPE-19 cells (American Type Culture Collection). Results are set out in FIG. 3.
Briefly, in these repeat experiments, MRC5 cells were infected with VZV at an MOI=1:50. AA, DHA, and αT were added to the cells at 6 hpi as indicated. 72 hours after infection, the cells were harvested into PSGC buffer and frozen at −80° C. for later processing. After thawing, the cells were sonicated and the yield of cell free VZV quantified by standard plaque assay on ARPE-19 cells. Fold change relative to no treatment (NT) is shown. […] The fold-changes are the average of two independent infections.
In brief, MRC5 cells were infected with VZV at an M01=1:50. Lipid mixture 1(LM-1) was added to the cells immediately after cell seeding. At 6 hours after infection, up to about 100 μM AA or […] was added to cells together with up to about 10 μM αT. 72 hours after infection, the cells were harvested into PSGC buffer and either frozen at −80° C. and sonicated later for the release of virus (frozen cells) or immediately sonicated after harvesting and supernatants containing the cell-free VZV were frozen at −80° C. (frozen sup.) prior to titration. Cell-free VZV yield was quantified by plaque assay on APRE-19 cells. Fold change relative to no treatment (NT) is shown. The numbers above the bars indicate the amount of virus obtained per ml in the corresponding treatment. The results are set out in FIG. 5.
Briefly, MRC5 cells were infected with VZV at an MOI=1:50. Six hours after infection cells were treated with indicated combinations of lipids plus 10 μM αT. Hexacosanoic acid (HSA) and octacosanoic acid (OSA) were dissolved in 20 mg/ml α-cyclodextin (Sigma-Aldrich) in PBS by sonication and added to a solution of 10 mg/ml fatty acid-free BSA (Sigma-Aldrich) in PBS (1:1, v/v) to give a stock concentration of 10 mM for each fatty acid. HSA, OSA, and DHA were used at 25 μM, and AA was used at 25 μM. Two sets of fatty acid concentrations was used for combination treatments: DHA, AA, and HSA was either added at concentrations of 25 μM, 100 μM, and 25 μM (high), or 10 μM, 50 μM, and 10 μM (low), respectively. 72 hours after infection, the cells were harvested into PSGC buffer, sonicated immediately and the yield of cell free VZV quantified by plaque assay on ARPE-19 cells. Fold change relative to no treatment (NT) is shown. The fold-changes are the average of two independent infections.
Briefly, MRC5 cells were grown in DMEM containing 10% fetal calf serum, 2 mM glutamax (Invitrogen) at 35° C. as described in the text. […]

VZV [2] = experiment: as above; type: cell-based, varicella zoster virus; conditions: Example 6; MOI 1:100, 72 hours after infection; HSA, DHA 25 μM, AA 100 μM, with 10 μM α-T; cholesterol 13 μM
MRC5 cells = experiment: Cytotoxicity evident upon visual inspection in VZV-infected MRC5 cells; type: cell-based, human; conditions: 100 μM
HCMV (AD169 strain) = type: cell-based, human cytomegalovirus; conditions: for HCMV yield, fold change relative to no treatment (NT): MRC5, 0.5 IU/cell, additive 2 h after infection, OA/LA/LLA up to 100 μM, EPA 75 μM, DHA 50 μM, AG 250 μM, cholesterol 13 μM; for HCMV yield, fold change relative to no treatment (NT) / HCMV production relative to no treatment: 96 h; for Effect of including the fatty acid on the HCMV yield increase given by aminoguanidine: in the presence of aminoguanidine; for HCMV production relative to no treatment: Example 2, MRC5, 0.5 IU/cell, FIG. 2
Method: Cells were infected with the AD169 strain of HCMV at a multiplicity of 0.5 infectious units/cell, and immediately following a 2-hour adsorption period, cells were fed with medium (Dulbecco's Modified Eagle Medium, DMEM) containing 10% fetal calf serum plus various fatty acids, cholesterol and carbonyl scavenging compound. At 96 hours post infection, infectious virus in the medium was assayed by fluorescent focus assay using antibody to the HCMV IE1 protein.
Briefly, About 90% confluent MRC5 human fibroblasts were infected with HCMV at a multiplicity of 0.5 IU/cell. Two hours after infection, medium was replaced with fresh medium containing 10% fetal calf serum and either of oleic acid (OA, up to about 100 μM), linoliec acid (LA, up to about 100 μM), α-linolenic acid (LLA, up to about 100 μM), eicosapentaenoic acid (EPA, up to about 75 μM), or docosahexaenoic acid (DHA, up to about 50 μM). The experiment was also performed in the presence of either aminoguanidine (AG, up to about 250 μM) or cholesterol (chol., up to about 13 μM). Virus production at 96 hours after infection was determined by fluorescent focus assay in MRC-5 cells and shown as a fold change relative to no treatment (NT) which was 5×10^5 infectious units. The fold-changes are the average of two independent infections.
Briefly, about 90% confluent MRC5 fibroblasts were infected with HCMV at a multiplicity of 0.5 IU/cell. Two hours after infection, medium was replaced with fresh medium containing 10% fetal calf serum and α-tocopherol (α-T) or aminoguanidine (AG) at indicated concentrations. Virus production at 96 h after infection was determined by fluorescent focus assay in which MRC-5 cells and shown as a fold change relative to no treatment (NT). The fold-changes are the average of two independent infections. Results are set out in FIG. 2.

[3] = 25 μM fatty acid at 6 hpi, absence of αT

CCCCC/C=C\C/C=C\C/C=C\C/C=C\CCCC(=O)O [AA, Arachidonic acid]
VZV yield, fold change relative to NT (VZV [1]; [3]): enhanced the yield of virus | VZV yield, fold change relative to NT (VZV [1]; 25 μM fatty acid at 6 hpi, presence of αT): increased the virus yield | VZV yield, fold change relative to NT (VZV [1]; 100 μM fatty acid at 6 hpi, absence of αT): inhibited virus production | VZV yield, fold change relative to NT (VZV [1]; 100 μM fatty acid at 6 hpi, presence of αT): 5 fold | VZV yield relative to no treatment (VZV [2]): elevated the yield of VZV

CC/C=C\C/C=C\C/C=C\C/C=C\C/C=C\C/C=C\CCC(=O)O [DHA, docosahexaenoic acid]
Cytotoxicity (MRC5 cells; absence of αT): toxic | Cytotoxicity (MRC5 cells; presence of αT): toxic | HCMV yield, fold change relative to no treatment (NT) (HCMV (AD169 strain)): 4.6 fold | VZV yield, fold change relative to NT (VZV [1]; [3]): about 1.5 fold

CC/C=C\C/C=C\C/C=C\C/C=C\C/C=C\CCCC(=O)O [EPA, eicosapentaenoic acid]
HCMV yield, fold change relative to no treatment (NT) (HCMV (AD169 strain)): 2.5 fold

CCCCCCCCCCCCCCCCCCCCCCCCCC(=O)O [HSA, hexacosanoic acid]
VZV yield in comparison to no treatment (VZV [1]): improved virus yields | VZV yield relative to no treatment (VZV [2]): elevated the yield of VZV

CCCCC/C=C\C/C=C\CCCCCCCC(=O)O [LA, linoleic acid]
HCMV yield, fold change relative to no treatment (NT) (HCMV (AD169 strain)): little effect on the yield | Effect of including the fatty acid on the HCMV yield increase given by aminoguanidine (HCMV (AD169 strain); MRC5, 96 h): reduced

CC/C=C\C/C=C\C/C=C\CCCCCCCC(=O)O [LLA, α-linolenic acid]
HCMV yield, fold change relative to no treatment (NT) (HCMV (AD169 strain)): about 1.2 fold | Effect of including the fatty acid on the HCMV yield increase given by aminoguanidine (HCMV (AD169 strain); MRC5, 96 h): reduced

CCCCCCCC/C=C\CCCCCCCC(=O)O [OA, oleic acid]
Cytotoxicity (MRC5 cells; absence of αT): without causing observable cellular toxicity | HCMV yield, fold change relative to no treatment (NT) (HCMV (AD169 strain)): reduced the yield | Effect of including the fatty acid on the HCMV yield increase given by aminoguanidine (HCMV (AD169 strain); MRC5, 96 h): reduced | Reduction of VZV production, factor (VZV [1]; 100 μM): 2 fold

CCCCCCCCCCCCCCCCCCCCCCCCCCCC(=O)O [OSA, octacosanoic acid]
VZV yield in comparison to no treatment (VZV [1]): improved virus yields

N=C(N)NN [aminoguanidine]
HCMV production relative to no treatment (HCMV (AD169 strain)): enhances the production of HCMV | HCMV yield, fold change relative to no treatment (NT) (HCMV (AD169 strain)): about 2.6 fold

CC(C)CCC[C@@H](C)[C@H]1CC[C@H]2[C@@H]3CC=C4C[C@@H](O)CC[C@]4(C)[C@H]3CC[C@]12C [cholesterol]
HCMV yield, fold change relative to no treatment (NT) (HCMV (AD169 strain)): no effect | Effect of cholesterol on the enhancing effects of fatty acids on HCMV yield (HCMV (AD169 strain); MRC5, 96 h, cholesterol up to about 13 μM): did not improve, and in some cases inhibited

Cc1c(C)c2c(c(C)c1O)CC[C@@](C)(CCC[C@H](C)CCC[C@H](C)CCCC(C)C)O2 [αT, alpha-tocopherol]
HCMV production relative to no treatment (HCMV (AD169 strain)): enhances the production of HCMV
